Assay results reported in patent publication US20240285555A1, “COMPOSITIONS FOR THE TREATMENT OF COPPER DEFICIENCY AND METHODS OF USE” (priority 2018, published 2024).

Tests used:
[1] = tested on: coa6Δ cells; assay: Cellular and mitochondrial copper measurements by ICP-MS in yeast; type: cell-based, Saccharomyces cerevisiae; conditions: 20 nM ES
Method: (§1) FIGS. 2A, 2B, 2C, 2D and 2E illustrate elesclomol supplementation rescues CcO assembly defects by restoring mitochondrial copper levels of yeast S. cerevisiae coa6Δ cells. FIGS. 2A-2C illustrate bioenergetic parameters of wild type (WT), coa6Δ, and coa6Δ cells supplemented with 20 nM ES were cultured in YP galactose medium until early stationary growth phase. […] Error bars represent mean±SD (n=3, two-tailed unpaired Student's t-test *p<0.05, **p<0.005).
Cellular and Mitochondrial Copper Measurements. Cellular and mitochondrial copper levels were measured using the Perkin Elmer DRC II Inductively Coupled Plasma-Mass Spectrometer (ICP-MS). Intact yeast cells and isolated mitochondrial pellets were washed with 100 μM EDTA containing water, weighed, and digested with 40% nitric acid (TraceSELECT, Sigma) at 90° C. for 18 h. Samples were diluted in ultrapure metal-free water (TraceSELECT, Sigma) and analyzed by ICP-MS. Copper standard solutions were prepared by appropriate dilutions of commercially available mixed metal standards (BDH Aristar Plus). Copper concentrations in mammalian cells were also measured by ICP-MS.
ES scavenges copper from the culture medium, enters the cell as an ES-copper complex, and selectively accumulates in mitochondria where it dissociates from copper. […]

[2] = tested on: CcO-containing mitochondrial respiratory chain supercomplexes; assay: Assembly and activity of CcO-containing supercomplexes (native PAGE blotting, in-gel activity); type: cell-based, Saccharomyces cerevisiae; conditions: 20 nM ES, YP galactose medium
Method: as §1
Immunoblotting and In-gel Activities. Sodium dodecyl sulfate polyacrylamide gel electrophoresis (SDS-PAGE) and Blue Native PAGE (BN-PAGE) were performed to separate denatured and native protein complexes, respectively. For SDS-PAGE, mitochondrial lysate ([…]) was separated on NuPAGE 4-12% Bis-Tris gels (Life Technologies, Carlsbad, CA). For BN-PAGE, yeast mitochondria were solubilized in buffer containing 1% digitonin (Life Technologies) by incubating for 15 min at 4° C. […]
A number of copper-binding pharmacological agents were tested for their ability to rescue respiratory deficient growth of coa6Δ cells. […] To determine the biochemical basis for the observed respiratory rescue of coa6Δ cells, the assembly and activity of CcO-containing mitochondrial respiratory chain supercomplexes was measured by native-polyacrylamide gel electrophoresis blotting and in-gel activity assay, respectively. […]

[3] = tested on: ccs1Δ cells; assay: Respiratory growth rescue of ccs1Δ yeast; type: cell-based, Saccharomyces cerevisiae; conditions: non-fermentable media, 37° C.
Method: Yeast Strains and Culture Conditions. The authenticity of yeast strains was confirmed by PCR as well as by replica plating on dropout plates. Yeast cells were cultured in standard YP growth media including YPD (1% yeast extract, 2% peptone and 2% glucose), YPGal (2% galactose), YPGE (3% glycerol+1% ethanol), or synthetic media (SC glucose). For qualitative growth measurement, 10-fold serial dilutions of overnight cultures were spotted on YPD or YPGE plates and incubated at 30° C. and 37° C. for the indicated period. Growth in liquid media was measured spectrophotometrically at 600 nm.
ES Rescues Many Different Yeast Mutants with Impaired Copper Metabolism. To test the specificity of ES mediated rescue, a number of yeast mutants of genes required for maintaining cellular and mitochondrial copper homeostasis were shortlisted. Genes were prioritized based on their evolutionary conservation, presence of pathogenic mutations in humans, and/or the existence of a related mouse phenotype (Table 3, shown below). […] Most of the yeast mutants were rescued with ES supplementation, albeit to different degrees, reflecting their distinct roles in cellular and mitochondrial copper homeostasis. […]

[4] = tested on: mottled-brindled (mo-br) mouse; assay: Survival of Menkes (mo-br) mice after subcutaneous injections; type: in vivo
Method: Kaplan-Meier Survival of mice after subcutaneous injections of ES-Cu(II) on postnatal days 7 and 10. Log-Rank statistical analysis was conducted to assess significance of survival among mo-br mice cohorts. Mo-br mice treated with 3.625 mg/kg/dose.
FIG. 8 illustrates mean body weight gain of mice after subcutaneous injections on postnatal days 7 and 10. Cohorts and number of mice/cohort are designated as follows: WT vehicle (n=13), WT Cu(II)-ES (n=12), mo-br vehicle (n=9), mo-br Cu(II)-ES (n=27), mo-br Cu(II)-2His (n=6), and mo-br ES (n=6). Growth curves are reported as the mean of each cohort±SD measured weekly.
To evaluate the potential of Cu(II)-ES in a mouse model of human copper deficiency disorder, the well-characterized mottled-brindled (mo-br) mouse model (C57BL/6-Atp7a^mo-br/J, Jackson Laboratory Stock #002566) that closely mimics the clinical and biochemical phenotypes of Menkes disease was chosen. Like in humans, these mice are characterized by mutation in ATP7a, which is an X-linked gene and therefore its mutation only affects males.

Compound: CN(NC(=O)CC(=O)NN(C)C(=S)c1ccccc1)C(=S)c1ccccc1 [ES, elesclomol]
- mitochondrial copper levels [1]: almost complete rescue
- total cellular copper levels [1]: moderately increased
- abundance and activity of CcO-containing supercomplexes [2]: restored the abundance and activity of CcO-containing supercomplexes to near wild type levels
- rescue of the respiratory growth defect [3]: rescue
- mean survival time ([4]; mouse, in vivo): 17.0 ± 0.9 days
- weekly time point by which all mice of the cohort had expired ([4]; subcutaneous, postnatal days 7 and 10): ≤ 2 week
